These results are taken from patent US6232314A, “Arylalkylpiperazine compounds as antioxidants” (Monash University, priority 1996, dated 2001).

For assay [1], the target named is NMDA receptor-ionophore complex (polyamine-sensitive ifenprodil binding site). Kind of assay: NMDA assay: competitive binding against [125I]ifenprodil in rat cortical membranes. Conditions: 30 min, 20° C., pH 7.7. The protocol:
The NMDA receptor-ionophore complex consists of a number of interacting domains, including one for polyamines where ifenprodil binds to exert its non-competitive antagonism.
The purified material was stored in methanol at -20° C.
Incubations were for 30 min. at 20° C., in triplicate, employing 12 concentrations of competing drugs. Non-specific binding was defined with 10 mM spermine. Assays were terminated by rapid filtration through GF/B filter paper and washing.

Assay [2] concerns lipid peroxidation (MDA formation) in rat brain homogenate. The assay can be described thus: Antioxidant assay: Fe3+-stimulated lipid peroxidation (TBARs / MDA formation) in rat brain homogenate. The format is biochemical. The source says:
Lipid peroxidation has been assessed in the present study using two procedures adopted from that described by Ohkawa et al. (1979) and Cheng et al. (1994). The compounds of the present invention have shown significant antioxidant effect in both assay systems.
Malondialdehyde (MDA) is one of the breakdown products of lipid peroxidation. MDA reacts with thiobarbituric acid (TBA) to produce a characteristic pink colour that can be measured spectrophotomerically. […] The present method has been modified from those described by Ohkawa et al. (1979) and Cheng et al. (1994).
Briefly, rat brain 10% homogenates were prepared in aqueous 20 mM Tris-HCl buffer, pH 7.4 media using a Polytron homogeniser. Assays contained 100 μl of rat brain homogenate and various concentrations of test compound (10 μl) were incubated for 10 min at 37° C. Ten μl of 1.0 or 0.1 mM Fe^3+ solution was then added to stimulate lipid peroxidation and the homogenates were incubated for a further 30 min at 37° C. The reaction was stopped by addition of sodium dodecyl sulphate (100 μl of 8.1% wt/vol solution) and 750 μl of 20% sodium acetate buffer (pH 3.5). The precipitated proteins were then removed by centrifugation at 10000 g for 15 min. Five hundred μl of clear supernatant was heated with 1 ml TBA solution (0.8% wt/vol) at 95° C. for 60 min. The samples were cooled and 200 μl of each sample was pipetted into a 96 well plate and absorbencies read at 532 nm using a Ceres UV900C microplate reader. Blank values representing samples containing 20 mM Tris-HCl and Fe^3+ only were subtracted from all values. Each value was expressed as a percentage of that for samples containing homogenate and Fe^3+ only (ie, no drug). From concentration response curves the concentrations causing 50% inhibition of MDA formation (IC50 values) for the test compounds were determined by computer-assisted linear regression analysis according to published methods (Leutner, 1982). These compared favourably with the values obtained in the assay with the benchmark antioxidant compound trolox. […]

The conditions of assay [3]: Gotti et al., 1988; cited from earlier work.
In assay [4] the test system is polyamine sensitive binding site of the NMDA receptor complex. Conditions: Carter et al., Reynolds et al., Robinson et al.; cited from earlier work.
The subject of assay [5] is murine neocortical neurones. Kind of assay: Assay for NMDA-induced toxicity in neuronal cultures (MTT). It counts as cell-based. The note with it: Mus musculus, NMDA 600 μM, 1 h, compound added 30 min prior, read-out: EC50 (inhibition of NMDA-induced toxicity). Here is the method: Neuronal cell death was assessed using a 3-(4,5-dimethylthiazol-2yl)-2,5-diphenyltetrazolium bromide (MTT) assay in which NMDA-induced cellular changes are reflected as altered mitochondrial activity (Ankarcrona et al., 1995), as estimated by the formation of a formazan dye, which is measured spectrophotometrically. The procedure employed is essentially that of Roehm et al. (1991) with minor modifications as previously described elsewhere in work from our laboratories Larm et al. (1996).
Primary cultures of murine neocortical neurones were established as described elsewhere (Larm et al., 1996). The effects of experimental compounds were tested in the cultures at 8 days in vitro. Exposure to NMDA (600 μM, 1 h) and other compounds was performed in an humidified incubator (5% CO2, 8% O2) at 37° C. in anti-oxidant free medium with compounds under evaluation being added 30 min prior to NMDA. For these conditions the culture medium was modified by omitting the following components: D,L-α-tocopherol, D,L-α-tocopherol acetate, catalase, superoxide dismutase and L-glutamine. Other details are described in Larm et al. (1996). Absorbance was read at 570 nm using a Ceres UV900 microplate reader. Control cultures were included in each experiment containing either vehicle alone or vehicle plus compound. These controls were taken as 100% neuronal viability, under the experimental conditions, and each experiment also included 500 μM L-glutamate representing 100% glutamatergic neuronal cell death. Background cell death in vehicle control cultures was 5-8%.
Concentration-response curves were generated as described elsewhere (Larm et al., 1996).

The mark [6] stands for this setting: Fe^3+ 100 μM, read-out: ~IC50 (inhibition of MDA formation), Fe^3+ 100 μM.
Where [7] appears, read: Fe^3+ 1000 μM, read-out: ~IC50 (inhibition of MDA formation), Fe^3+ 1000 μM.

SMILES strings stand for the structures. Where two headings read alike, the source gives them in different places.

As a reminder, the Ki is a dissociation constant, usually derived from enzyme kinetics or from competition with a known ligand. Higher therefore signals lower affinity. In general, IC50 refers to the concentration needed to halve the response being measured. In assay [1], `CC(C)(C)c1cc(CN2CCN(CC(O)c3ccc(F)cc3)CC2)cc(C(C)(C)C)c1O` (stereo not drawn) [Compound 161, 1-(2-(4-fluorophenyl)-2-hydroxy)ethyl-4-(3,5-bis(1,1-dimethylethyl)-4-hydroxyphenyl)methylpiperazine] had a Ki of 5.4 ± 0.6 µM. The IC50 in assay [2] (setting [6]) is about 19.5 µM; in assay [2] (setting [7]) it was about 15.2 µM.
For `CC(C)(C)c1cc(CN2CCN(CC(O)c3ccc(OC(F)(F)F)cc3)CC2)cc(C(C)(C)C)c1O` (stereo not drawn) [Compound 193, 1-(2-(4-trifluoromethoxyphenyl)-2-hydroxy)ethyl-4-(3,5-bis(1,1-dimethylethyl)-4-hydroxyphenyl)methylpiperazine], in assay [1], the affinity corresponds to a Ki of 11.7 ± 1 µM. Moreover, the IC50 in assay [2] (setting [6]) was about 59.6 µM; in assay [2] (setting [7]), about 22.3 µM.
The molecule `COc1ccc(OC)c(C(O)CN2CCN(Cc3cc(C(C)(C)C)c(O)c(C(C)(C)C)c3)CC2)c1` (stereo not drawn) [Compound 247, 1-(2-(2,5-dimethoxyphenyl)-2-hydroxy)ethyl-4-(3,5-bis(1,1-dimethylethyl)-4-hydroxyphenyl)methylpiperazine] returned a Ki in assay [1] of 8.5 ± 3.1 µM. The IC50 in assay [2] (setting [6]) was about 9.9 µM; in assay [2] (setting [7]), about 10.3 µM.
As to `OC(CN1CCC(Cc2ccc(F)cc2)CC1)c1ccc(Cl)cc1` (stereo not drawn) [eliprodil], the “neuroprotective properties / antiischaemic” value in assay [3] is reported as “neuroprotective properties in models of neurodegeneration following ischaemia”. In addition, in assay [4], the “interaction with the polyamine sensitive site of the NMDA receptor complex” value was “interacting with the polyamine sensitive binding site of the NMDA receptor”.
In turn, `CC(C)(C)c1cc(CN2CCN(CC(O)c3ccc4c(c3)OCO4)CC2)cc(C(C)(C)C)c1O` (stereo not drawn) [Compound 211, 1-(2-(3,4-methylenedioxyphenyl)-2-hydroxy)ethyl-4-(3,5-bis(1,1-dimethylethyl)-4-hydroxyphenyl)methyl piperazine] returned a Ki in assay [1] of 19.1 ± 5.7 µM.
For orientation: EC50 means the concentration giving half of the maximal effect. With `C[C@H]([C@H](O)c1ccc(O)cc1)N1CCN(Cc2cc(C(C)(C)C)c(O)c(C(C)(C)C)c2)CC1` (relative stereo) [Compound 2 ((R, R)-racemic)], in assay [5], the EC50 amounted to 1.28 µM.
On to `CC(C(O)c1ccc(Cl)cc1)N1CCN(Cc2cc(C(C)(C)C)c(O)c(C(C)(C)C)c2)CC1` (stereo not drawn) [Compound 34, 1-(2-(4-Chlorophenyl)-2-hydroxy-1-methyl)ethyl-4-(3,5-bis(1,1-dimethylethyl)-4-hydroxyphenyl)methylpiperazine], for which, in assay [1], the Ki amounted to 14.6 ± 2.8 µM. The IC50 in assay [2] (setting [6]) was about 25.4 µM; in assay [2] (setting [7]), about 36.3 µM.
Taken in the same sequence, the figures for `C[C@@H]([C@H](O)c1ccc(O)cc1)N1CCN(Cc2cc(C(C)(C)C)c(O)c(C(C)(C)C)c2)CC1` (relative stereo) [2 ((R, S)-racemic)] were 14.5 ± 5.6 µM, about 23.8 µM and about 24.1 µM.
In the case of `Cc1c(C)c2c(c(C)c1O)CCC(C)(C(=O)O)O2` (stereo not drawn) [trolox, reference compound], the results for the IC50 in assay [2] (setting [6]) and in assay [2] (setting [7]) were about 88.2 µM and about 90.8 µM, respectively.
Regarding `C[C@@H]([C@H](O)c1ccc(O)cc1)N1CCN(Cc2cc(C(C)(C)C)c(O)c(C(C)(C)C)c2)CC1` (relative stereo), in assay [5], the EC50 was 3.01 µM.
Take `CC(C)(C)c1cc(CN2CCN(CC(O)c3ccc(Cl)cc3)CC2)cc(C(C)(C)C)c1O` (stereo not drawn) [Compound 33, 1-(2-(4-Chlorophenyl)-2-hydroxy)ethyl-4-(3,5-bis(1,1-dimethylethyl)-4-hydroxyphenyl)methylpiperazine]: affinity in assay [1] was put at a Ki of 10.8 ± 0.6 µM. The IC50 in assay [2] (setting [6]) is about 57.2 µM; in assay [2] (setting [7]) it was about 41.4 µM. Moreover, the EC50 in assay [5] turned out to be 0.39 µM.
Regarding `CC(C)(C)c1cc(CN2CCN(CC(O)c3ccc(Cl)s3)CC2)cc(C(C)(C)C)c1O` (stereo not drawn) [Compound 229, 1-(2-(2-chlorothiophen-5-yl)-2-hydroxy)ethyl-4-(3,5-bis(1,1-dimethylethyl)-4-hydroxyphenyl)methylpiperazine], the affinity in assay [1] corresponds to a Ki of 19.6 ± 5.2 µM.
Turning to `Cc1cc(OCCN2CCN(CC(O)c3ccc(Cl)cc3)CC2)c(C)c(C)c1O` (stereo not drawn) [Example 21, 1-(2-(4'-chlorophenyl)-2-hydroxy)ethyl-4-(2-(2', 3', 5'-trimethyl-4'-hydroxyphenoxy))ethyl piperazine], the Ki in assay [1] was found to be 6.1 ± 2 µM. For the same molecule, the results for the IC50 in assay [2] (setting [6]) and in assay [2] (setting [7]) were under 3 µM and under 1 µM, respectively.
`C[C@H]([C@H](O)c1ccc(O)cc1)N1CCN(Cc2cc(C(C)(C)C)c(O)c(C(C)(C)C)c2)CC1` (relative stereo) [2 ((R, R)-racemic)] showed a Ki in assay [1] of 15.7 ± 4.6 µM. Also, the IC50 in assay [2] (setting [6]) is about 16.8 µM; in assay [2] (setting [7]), about 14.9 µM.
In the case of `CC(C)(C)c1cc(CN2CCN(CC(O)c3ccc(Br)cc3)CC2)cc(C(C)(C)C)c1O` (stereo not drawn) [Compound 65, 1-(2-(4-bromophenyl)-2-hydroxy)ethyl-4-(3,5-bis(1,1-dimethylethyl)-4-hydroxyphenyl)methylpiperazine], the Ki in assay [1] was found to be 7 ± 1.5 µM. Besides, the IC50 in assay [2] (setting [6]) was about 96.8 µM; in assay [2] (setting [7]) it was about 53.3 µM. In addition, the EC50 in assay [5] worked out at 0.24 µM.
As to `Cc1cc(CN2CCN(CC(O)c3ccc(Cl)cc3)CC2)cc(C(C)(C)C)c1O` (stereo not drawn) [Compound 265, 1-(2-(4-chlorophenyl)-2-hydroxy)ethyl-4-(3-(1,1-dimethylethyl)-4-hydroxy-5-methylphenyl)methylpiperazine], the affinity in assay [1], expressed as Ki, was 13.2 ± 2.6 µM. Moreover, the IC50 is about 59.4 µM in assay [2] (setting [6]) and about 38.5 µM in assay [2] (setting [7]).
For `CC(C)(C)c1cc(CN2CCN(CC(O)c3cccc(Cl)c3)CC2)cc(C(C)(C)C)c1O` (stereo not drawn) [Example 12, 1-(2-(3-chlorophenyl)-2-hydroxy)ethyl-4-(3,5-bis(1,1-dimethylethyl)-4-hydroxyphenyl)methylpiperazine], in assay [5], the EC50 worked out at 0.76 µM.
Regarding `CC(C)(C)c1cc(CN2CCN(CC(O)c3cccc([N+](=O)[O-])c3)CC2)cc(C(C)(C)C)c1O` (stereo not drawn) [Example 6, 1-(2-(3-nitrophenyl)-2-hydroxy)ethyl-4-(3,5-bis(1,1-dimethylethyl)-4-hydroxyphenyl)methyl piperazine], affinity in assay [1] was put at a Ki of 15.1 ± 6.1 µM. Also, the values for the IC50 in assay [2] (setting [6]) and in assay [2] (setting [7]) were about 32.4 µM and about 26.6 µM, respectively.
In the case of `CC(C)(C)c1cc(CN2CCN(CCC(O)c3ccc(Cl)cc3)CC2)cc(C(C)(C)C)c1O` (stereo not drawn) [Compound 35, 1-(3-(4-Chlorophenyl)-3-hydroxy)propyl-4-(3,5-bis(1,1-dimethylethyl)-4-hydroxyphenyl)methylpiperazine], the affinity in assay [1], expressed as Ki, was 16.8 ± 3.2 µM. The results for the IC50 in assay [2] (setting [6]) and in assay [2] (setting [7]) were about 27.9 µM and about 9.3 µM, respectively.
`Cc1c(C)c2c(c(C)c1O)CCC(C)(CN1CCN(CC(O)c3ccc(Cl)cc3)CC1)O2` (stereo not drawn) [Compound 49] displayed a Ki in assay [1] of 15.2 ± 3.9 µM. Moreover, the IC50 is about 3.6 µM in assay [2] (setting [6]) and about 2.4 µM in assay [2] (setting [7]). In assay [5], the 50% effective concentration (EC50) worked out at 2.9 µM.
On to `CC(C)(C)c1cc(CN2CCN(CC(O)c3ccc(O)cc3)CC2)cc(C(C)(C)C)c1O` (stereo not drawn) [Compound 1, 1-(2-(4-hydroxyphenyl)-2-hydroxy)ethyl-4-(3,5-bis(1,1-dimethylethyl)-4-hydroxyphenyl)methylpiperazine], for which the affinity in assay [1], expressed as Ki, was 13 ± 0.6 µM. The IC50 was about 32.7 µM in assay [2] (setting [6]) and about 18.3 µM in assay [2] (setting [7]).
